Measured values from patent publication US20120156615A1, “CYCLIC COMPOUND, PROCESS FOR PRODUCTION OF THE CYCLIC COMPOUND, RADIATION-SENSITIVE COMPOSITION, AND METHOD FOR FORMATION OF RESIST PATTERN” (MITSUBISHI GAS CHEMICAL COMPANY, INC., priority 2009, published 2012).

Assay: Solubility of compound in safety solvent
Type: physicochemical
Details: for solubility in CHN (dissolved amount): solvent cyclohexanone (CHN); for solubility in PGME (dissolved amount): solvent propylene glycol monomethyl ether (PGME)
Description: (1) Solubility of Compound in Safety Solvent
The compounds obtained in Synthesis Examples 1 to 6 and Synthesis 1 to 4 were evaluated for the solubility in propylene glycol monomethyl ether (PGME) and cyclohexanone (CHN).
A: 20.0 wt %≦dissolved amount
B: 1.0 wt %≦dissolved amount<20.0 wt %
C: dissolved amount<1.0 wt %

Structure (SMILES) | solubility in CHN (dissolved amount) | solubility in PGME (dissolved amount)
Oc1cc(O)c2cc1C(c1ccc(C3CCCCC3)cc1)c1cc(c(O)cc1O)C(c1ccc(C3CCCCC3)cc1)c1cc(c(O)cc1O)C(c1ccc(C3CCCCC3)cc1)c1cc(c(O)cc1O)C2c1ccc(C2CCCCC2)cc1 (stereo not shown) [CR-4A] | B (1.0 wt %≦dissolved amount<20.0 wt %) | B (1.0 wt %≦dissolved amount<20.0 wt %)
CC(C)c1ccc(C2c3cc(c(O)cc3O)C(c3ccc(C(C)C)cc3)c3cc(c(O)cc3O)C(c3ccc(C(C)C)cc3)c3cc(c(O)cc3O)C(c3ccc(C(C)C)cc3)c3cc2c(O)cc3O)cc1 (stereo not shown) [CR-1A] | B (1.0 wt %≦dissolved amount<20.0 wt %) | B (1.0 wt %≦dissolved amount<20.0 wt %)
